Reference: paper PMC7645381, “Development and application of a high-throughput screening assay for identification of small molecule inhibitors of the P. falciparum reticulocyte binding-like homologue 5 protein” (International Journal for Parasitology: Drugs and Drug …, 2020)

Key:
P. falciparum D10 = P. falciparum D10 growth inhibition by flow cytometry; type: cell-based; conditions: Plasmodium falciparum, D10; growth inhibition by flow cytometry, 12-point dilution series, 72 h
Experimental: Pranlukast and selected analogues were then evaluated in a P. falciparum parasite viability assay. For this assay, we followed the procedure described by [Gamo et al. (2010)], that used lactate dehydrogenase (LDH) as a readout for parasite viability. In this assay, 3D7 parasites were incubated over 72 h in the presence of increasing concentrations of compounds. […]. For a comparison, selected compounds were incubated in the presence of P. falciparum D10 parasites for 72 h (Table 1, Fig. S14) and growth inhibition measured by flow cytometry. […].

[1] = molecular target: P. falciparum Rh5 (Rh5 – basigin interaction) (Plasmodium falciparum, UniProt Q8IFM5); assay: biochemical; set-up: AlphaScreen of Rh5 - His-tagged basigin interaction with anti-Rh5 mAb beads; inhibition of luminescence signal; conditions: Batch Reference=01; confirmation screen, duplicate
Experimental: Using the Combi-multidrop, 5 μL of Rh5 stock solution (200 nM prepared in assay buffer) was added to columns 1–24 of the 384-well assay plate (Greiner 384-well white, low binding plate, #784904, Bioone). The PerkinElmer Janus automated dispensing system was then employed to transfer, via the pin-tool, 2 × 100 nL of the compound stock DMSO solution from the compound master plate to the assay plate. The plate was sealed and incubated for 30 min at room temperature. Using a Combi-multidrop, 5 μL of hexa-histidine tagged basigin stock solution (80 nM prepared in assay buffer) was then added to columns 1–23 and 5 μL assay buffer to column 24 of the 384-well assay plate. The plate was sealed again and incubated for 30 min at room temperature. A solution of AlphaScreen donor and acceptor beads (20 μg/mL prepared in assay buffer) plus anti-Rh5 mAb solution (2 μg/mL prepared in assay buffer) was prepared in assay buffer under subdued lighting. Using the Combi-multidrop, 10 μL of this solution was added to every well of the assay plate under subdued lighting. The plate was sealed with foil (plate max) and incubated at room temperature for 1 h. The assay plate was then analysed on the PerkinElmer Envision 2103 Multilabel Plate Reader (Ex 680, Em 520–620 nm). […] Historically, PPIs are notoriously difficult to target with small molecules. To enhance the likelihood of identifying an inhibitor of the Rh5 - basigin interaction the primary screen was conducted at a compound concentration of 20 μM. A 20 μM screening concentration is considered high, when compared to the commonly used primary screen concentrations of approximately 1–10 μM. […] To do this, a two-phase hit confirmation and counterscreen process was undertaken (Fig. 1). […] Both assays were undertaken at 10 μM in duplicate. The counterscreen assay was conducted using AlphaScreen TruHits.

D10-PfPHG parasites = assay: Schizont rupture assay; type: cell-based, P. falciparum
Experimental: D10-PfPHG parasites ([Wilson et al., 2010]) were cultured in human O^+ erythrocytes in RPMI-HEPES culture medium (pH 7.4, 50 μg/mL hypoxanthine, 25 mM NaHCO3, 20 μg/mL gentamicin, 0.5% Albumax II (Thermo Fisher Scientific) according to established protocols ([Trager and Jensen, 1976]) and maintained in an atmosphere of 1% O2, 4% CO2 and 95% N2. For assessment of merozoite invasion after schizont rupture, parasites were tightly synchronised to a 4 h window of invasion using heparin ([Boyle et al., 2010]; [Wilson et al., 2015]) and then grown for a further 42 h. Drug treatments were setup at 2–3% parasitaemia and 1% haematocrit in 50 μL volumes with a 1 in 10 dilution of drug added when parasites were 44–48 h post invasion. After 6 h of drug treatment and immediately after invasion was expected to finish, the assays were treated with 5 μg/mL ethidium bromide (EtBr, Bio-Rad) for 5 min prior to flow cytometry assessment of parasitaemia using a Becton Dickinson Accuri. Gating of newly invaded rings, free merozoites and unruptured late stages was achieved as per published methods ([Wilson et al., 2013]).
To determine if the modest activity of pranlukast and analogues in the parasite viability assay was a consequence of invasion inhibition, rather than inhibition at another stage of blood stage parasite development, we performed an assay that measures the effect of compound treatment on P. falciparum D10 asexual stage transition between late schizont and ring stages ([Wilson et al., 2013]). In this assay, highly synchronised mature schizont-stage parasites were incubated with pranlukast and selected analogues at 50 and 100 μM and the transition to newly invaded ring stage parasites was quantified by flow cytometry. In parallel, the rate of schizont rupture and merozoite release was quantified to assess whether any reduction in newly invaded ring stages was due to a block affecting merozoite release or development. […] Neither DMSO (at the maximal concentration used for the drug treatments of 0.1%) or a non-invasion inhibitory mAb control caused a reduction in merozoite invasion. […] […].

HepG2 cells = assay: HepG2 growth inhibition assay; type: cell-based; conditions: Homo sapiens, 10-point dilution series, 48 h, Cell Titre-Glo
Experimental: HepG2 cells were cultured in Dulbeccos modified eagle's medium (DMEM) supplemented with 10% fetal calf serum (FCS), in a humidified incubator at 37 °C and 5% CO2. Ten-point compound titration assays were performed by treating cells (1 × 10^3) for 48 h in 384 well tissue culture treated plates (Greiner). Cytotoxicity was determined using Cell Titer Glo (Promega) and calculated as a percentage using DMSO as a positive growth control and 10 μM Bortezomib as a negative growth control. EC50 values were calculated using a 4-parameter log dose, non-linear regression analysis, with sigmoidal dose response (variable slope) curve fit using Graph Pad Prism (version 6.05). 0 and 100 constraint parameters were used for curve fitting. […]

P. falciparum Rh5 (Rh5 – basigin interaction), sequence (Q8IFM5 24-526): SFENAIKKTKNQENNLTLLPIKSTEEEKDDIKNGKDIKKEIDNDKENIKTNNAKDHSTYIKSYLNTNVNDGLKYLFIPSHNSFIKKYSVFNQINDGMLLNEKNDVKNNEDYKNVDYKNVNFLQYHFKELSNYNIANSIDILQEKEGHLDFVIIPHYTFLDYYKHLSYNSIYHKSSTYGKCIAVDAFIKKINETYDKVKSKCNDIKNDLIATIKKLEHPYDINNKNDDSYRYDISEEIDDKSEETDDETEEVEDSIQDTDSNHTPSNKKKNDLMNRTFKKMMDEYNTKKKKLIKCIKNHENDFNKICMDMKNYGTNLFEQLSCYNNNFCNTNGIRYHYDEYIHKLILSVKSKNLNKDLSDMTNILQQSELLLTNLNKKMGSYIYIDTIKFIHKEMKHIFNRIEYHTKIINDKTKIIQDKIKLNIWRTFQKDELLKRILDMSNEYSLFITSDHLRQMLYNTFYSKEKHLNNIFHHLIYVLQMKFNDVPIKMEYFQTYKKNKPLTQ

O=C(Nc1cccc2c(=O)cc(-c3nnn[nH]3)oc12)c1ccc(OCCCCc2ccccc2)cc1 [pranlukast]
EC50 (P. falciparum D10): 28 µM | inhibition at 10 µM [1]: 69% | merozoite invasion (newly invaded early ring stages) (D10-PfPHG parasites; 50 and 100 μM, 6 h, flow cytometry): substantial reduction in the numbers of merozoites that had invaded and formed early ring stages | free merozoite numbers (D10-PfPHG parasites; lowest concentration tested (50 μM)): minimal loss in free merozoite numbers | EC50 (HepG2 cells): > 50 µM
